Columns and labels:
male ICR mice = experiment: Measurement of limit running time using a treadmill; format: in vivo, mouse; conditions: GABA training group vs training group, diet with 0.5% GABA
Procedure: (§1) Specifically, 10 week-old male ICR mice are classified into the group in which normal food is freely ingested and training is not carried out (control group), the group in which a diet of normal food added with 0.5% of GABA (1.8 g for human) is freely ingested and training is not carried out (GABA group), the group in which normal food is freely ingested and training is carried out (training group) and the group in which a diet of normal food added with 0.5% of GABA (1.8 g for human) is freely ingested and training is carried out (GABA training group) (9 mice in each group). During the test period, the above classified mice freely ingested about 2.7 to about 5.0 g/day of normal food or GABA-comprising food per one individual. Regarding the training group and the GABA training group, running was forced for 60 minutes on a schedule of 3 times a week (interval of 1 day or 2 days). This training was continued until 3 days after termination of the below-mentioned third running test. In the training, a treadmill for small animals (Meiquest Ltd.) was used with the gradient of 0 degree to force running at 25 m/minute running speed. Since a mouse will run at the speed of about 6 to 24 m/minute without a load, the running speed of 25 m/minute is a little faster than normal, i.e., low to moderate intensity.

[1] = test system: glycogen in a skeletal muscle (gastrocnemius muscle); experiment: Measurement of the amount of glycogen in a skeletal muscle; format: in vivo, mouse; conditions: 0.5% GABA diet
Procedure: as §1

insulin in plasma = experiment: Measurement of the amount of insulin in plasma; format: in vivo, mouse; conditions: 0.5% GABA diet
Procedure: (§2) Specifically, 10 week-old male ICR mice are classified into the group in which normal food is freely ingested and training is not carried out (control group), the group in which a diet of normal food added with 0.5% of GABA (1.8 g for human) is freely ingested and training is not carried out (GABA group), the group in which normal food is freely ingested and training is carried out (training group) and the group in which a diet of normal food added with 0.5% of GABA (1.8 g for human) is freely ingested and training is carried out (GABA training group) (9 mice in each group).
During the test period, the above classified mice freely ingested about 2.7 to about 5.0 g/day of normal food or GABA-comprising food per one individual. Regarding the training group and the GABA training group, running was forced for 60 minutes on a schedule of 3 times a week (interval of 1 day or 2 days). This training was continued until 3 days after termination of the below-mentioned third running test. In the training, a treadmill for small animals (Meiquest Ltd.) was used with the gradient of 0 degree to force running at 25 m/minute running speed. Since a mouse will run at the speed of about 6 to 24 m/minute without a load, the running speed of 25 m/minute is a little faster than normal, i.e., low to moderate intensity.
2 days after termination of the final training, blood of a mouse in a group is collected to measure the amount of insulin in plasma. The measurement of the amount of insulin in plasma was carried out as described below using Lbis (registered trademark) Insulin-Mouse T (FUJIFILM Wako Shibayagi Corporation).
96 well plate for turning an antibody into a solid phase was prepared and washed 4 times with a cleaning liquid. 100 μL of biotin binding anti-insulin antibody was added thereto and stirred. […] 100 μL of 1M sulphuric acid solution was respectively added to stop the reaction, measure absorbance (OD 450 nm) and calculate the amount of insulin in plasma.

PGC-1α protein = experiment: Relative expression of PGC-1α protein in a skeletal muscle (western blotting); format: in vivo, mouse; conditions: gastrocnemius muscle
Procedure: as §1, with “[…] The amount of protein was quantified in accordance with the method of the TaKaRa BCA Protein Assay Kit (TAKARA BIO INC.) using bovine serum albumin as” for “Since”, “standard protein. […]” for “mouse will run at the speed of about 6 to 24 m/minute without a load, the running speed of 25 m/minute is a little faster than normal, i.e., low to moderate intensity.”

AMPK protein = experiment: Relative expression of AMPK protein in a skeletal muscle (western blotting); format: in vivo, mouse; conditions: gastrocnemius muscle
Procedure: as §1, with “[…] The amount of protein was quantified in accordance with the method of the TaKaRa BCA Protein Assay Kit (TAKARA BIO INC.) using bovine serum albumin as” for “Since”, “standard protein. […]” for “mouse will run at the speed of about 6 to 24 m/minute without a load, the running speed of 25 m/minute is a little faster than normal, i.e., low to moderate intensity.”

phosphorylated AKT/AKT = experiment: Phosphorylated AKT/AKT ratio in a skeletal muscle (western blotting); format: in vivo, mouse; conditions: gastrocnemius muscle
Procedure: as §1

mitochondrial DNA = experiment: Measurement of the amount of mitochondrial DNA in a skeletal muscle (real-time PCR); format: in vivo, mouse; conditions: GABA training group vs control group, GABA group and training group
Procedure: as §2
(§3) During the test period, the above classified mice freely ingested about 2.7 to about 5.0 g/day of normal food or GABA-comprising food per one individual. Regarding the training group and the GABA training group, running was forced for 60 minutes on a schedule of 3 times a week (interval of 1 day or 2 days). […]
20 to 50 mg of tissue sample was taken out to a 2 mL plastic tube to extract DNA in accordance with the genome DNA purification protocol described in NucleoSpin® DNARapidLyse (TAKARA BIO INC.). The amount of relative expression of the amount of mitochondria with respect to mouse nuclear DNA was quantified with the real-time PCR method using Thermal Cycler Dice® Real TimeSystem II (TAKARA BIO INC.) and set as mitochondrial DNA amount.

myosin 2a protein = experiment: Relative expression of myosin 2a in a skeletal muscle (soleus muscle), western blotting; format: in vivo, mouse
Procedure: as §2
as §3, with “days). This training was continued until 3 days after termination of the below-mentioned third running test.” for “days).”
Two days after termination of the final training, a skeletal muscle (soleus muscle) tissue of mouse was grinded with a biomasher on ice. […] The protein concentration of the protein extraction liquid was measured with a protein assay BCA kit and dilution was carried out with a RIPA buffer so that the protein concentration of the protein extraction liquid would be 4 mg/ml. […]

skeletal muscle = conditions: GABA in addition to whey protein vs whey protein alone; in training; J Clin Med Res. 2019; 11(6):428-434; cited from earlier work

NCCCC(=O)O [GABA, γ-aminobutyric acid]
amount of increase of running time due to a training (running time to exhaustion) (male ICR mice; fourth week, P=0.14): tendency to be enlarged
amount of increase of running time due to a training (running time to exhaustion) (male ICR mice; second week, P=0.04): significantly enlarged
amount of glycogen in the gastrocnemius muscle ([1]; GABA group vs control group, no training, P=0.09): tendency of increase
amount of glycogen in the gastrocnemius muscle ([1]; GABA training group vs training group, P=0.04): significantly increased
amount of insulin in plasma (insulin in plasma; GABA group vs control group, no training): decreased
amount of insulin in plasma (insulin in plasma; GABA training group vs control group): decreased
amount of insulin in plasma (insulin in plasma; GABA training group vs training group, P=0.07): decreased
amount of expression of PGC-1α protein in a skeletal muscle (PGC-1α protein; GABA training group vs training group, P=0.01): significantly increased
amount of expression of PGC-1α protein in a skeletal muscle (PGC-1α protein; vs control group (group not given, presumably GABA group)): tendency of increase
amount of expression of AMPK protein (AMPK protein; GABA training group vs control group, P=0.0008): increased
amount of expression of AMPK protein (AMPK protein; GABA training group vs training group): increased more than the training group
phosphorylated AKT/total AKT ratio in a skeletal muscle (phosphorylated AKT/AKT; GABA group vs control group): tendency to decrease
phosphorylated AKT/total AKT ratio in a skeletal muscle (phosphorylated AKT/AKT; GABA training group vs training group, P=0.0001): significantly decreased
mitochondrial DNA amount in a skeletal muscle (mitochondrial DNA): tendency of increase
amount of expression of myosin 2a protein in a skeletal muscle (soleus muscle) (myosin 2a protein; GABA group vs control group and training group): tendency to increase
amount of expression of myosin 2a protein in a skeletal muscle (soleus muscle) (myosin 2a protein; GABA training group vs the other 3 groups): significantly increased
amount of fat removed muscle (skeletal muscle): increases
muscle hypertrophy (skeletal muscle): stimulates more muscle hypertrophy

Reference: patent US20210322352A1, “COMPOSITION FOR IMPROVING ENDURANCE AND METHOD OF IMPROVING ENDURANCE USING THE SAME” (PHARMA FOODS INTERNATIONAL CO., LTD., priority 2020, published 2021)
